We go through 31 molecules from PubChem BioAssay (NCI).

Test in all cases: DTP human tumour cell line panel, 48 h
Assay [1] deals with SW-620 colon.
The test system of assay [2] is RPMI-8226 leukemia.
Assay [3] concerns HCT-116 colon.
In assay [4] the test system is SF-268 CNS.
The subject of assay [5] is IGROV1 ovarian.
Assay [6] relates to T-47D breast.
The subject of assay [7] is MOLT-4 leukemia.
In assay [8] the test system is SF-539 CNS.
In assay [9] the test system is NCI-H226 lung.
Assay [10] has as its system OVCAR-4 ovarian.

Values joined by “and” are separate entries in the source; they are usually repeats but may differ in a detail not shown here. Equal values may be shown once.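 A five-concentration, 48-hour dose response in 96-well plates underlies each endpoint, interpolated linearly between surrounding concentrations. The concentration for 50% growth inhibition is given as GI50. TGI: total growth inhibition.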 Where a SMILES comes first, the peptide text is derived from it.

A word on the TGI: it is the concentration giving total growth inhibition. Low values mean greater sensitivity of the cells, high ones lower sensitivity of the cells. `O=c1[nH]c2ccc(C(F)(F)F)cc2nc1-c1ccccc1`: the TGI in assay [1], in assay [2], in [3], in [4], in assay [5] and in assay [6] was more than 100 µM in each case. The TGI in assay [7] and in assay [8] was more than 100 µM in each case.

Turning to `CCOC(=O)/C(C#N)=C/c1ccc2c(-c3c(OCC)ccc4cc(/C=C(\C#N)C(=O)OCC)ccc34)c(OCC)ccc2c1`, the TGI in [1], in [2], in assay [9], in [3], in [4] and in [5] was more than 100 µM each time. Moreover, the TGI in assay [6], in assay [10] and in assay [7] was more than 100 µM each time.

Regarding `C=C1C(=O)O[C@@H]2[C@H]3O[C@]3(C)CCC=C(C)CC[C@@H]12`, the TGI in assay [1] came to 34.5 µM; in [2] it was 77.2 µM; in [9], 49.1 µM; in assay [3] it was 35.1 µM; in [4], 62.6 µM; in assay [5], 52.4 µM. Moreover, the results for the TGI in assay [10], in [7] and in [8] were 45.3 µM, 92 µM and 44.6 µM, respectively.

Turning to `CC(C)(C)OC(=O)[N+](=N)C(=O)C1CCC(=O)N1C(=O)OCc1ccccc1` (stereo unspecified), the TGI in assay [1], in [2], in assay [9], in assay [3], in assay [4] and in [5] was more than 100 µM throughout. The TGI in assay [6], in assay [10] and in assay [7] was more than 100 µM throughout.

For the molecule `CC1C(c2ccc(F)cc2)c2cc3c(cc2OC1N1CCCC1)OCO3` (stereo unspecified), the TGI in [1], in assay [3], in assay [4], in assay [5], in [6] and in [8] was more than 100 µM in each case.

Turning to `c1ccc2c(c1)ccc1nc(-c3ccc4c(c3)OCO4)c3c(c12)CCCC3`, the TGI in assay [1] was more than 100 µM; in [2], more than 100 µM; in assay [9], more than 100 µM; in assay [3], more than 100 µM; in [4], 88.1 µM; in assay [6], 94.5 µM. The TGI in assay [10] is 64.8 µM; in assay [7], more than 100 µM; in assay [8], 34.2 µM.

For `CCOC(=O)CC(=O)NC1CC2CCC1(C)C2(C)C` (stereo unspecified), the TGI in assay [1], in assay [2], in assay [9], in assay [3], in assay [4] and in assay [5] was more than 100 µM in each case. Besides, the TGI in [10], in assay [7] and in assay [8] was more than 100 µM throughout.

`CN1C2CCC1CC(OC(c1ccccc1)c1ccccc1)C2` (stereo unspecified): the total growth inhibition concentration (TGI) in assay [1] stood at 27.6 µM; in assay [2] it was 33.4 µM; in assay [9] it was 72.6 µM; in assay [3] it was 25.1 µM; in assay [4], 41.5 µM; in assay [5], 38.8 µM. Also, the results for the concentration for total growth inhibition (TGI) in [6], in assay [10] and in [7] were 80.1 µM, more than 100 µM and 73.6 µM, respectively.

Regarding `CSC(SC)=C1CC(=O)Nc2ccccc2C1=O`, the TGI is more than 100 µM in [9]; more than 100 µM in [3]; more than 100 µM in assay [4]; more than 100 µM in assay [5]; 56.5 µM in assay [6]; more than 100 µM in assay [10]. Moreover, the TGI is 96 µM in assay [7] and more than 100 µM in assay [8].

In the case of `CCOC(=O)CN1CCNCCN(CC(=O)OCC)CCNCC1`, the TGI in assay [2], in [9], in assay [3], in assay [5], in assay [6] and in assay [10] was more than 100 µM throughout. The TGI in assay [7] and in [8] was more than 100 µM in each case.

In the case of `CC(C)=CCC[C@]1(C)CC[C@]2(C)C3CCC(=C(C)C)[C@@H](CCCO)[C@]3(C)CC[C@@]2(C)C1` (stereo partly specified), the TGI in assay [1] was more than 100 µM; in assay [2] it was more than 100 µM; in assay [9] it was more than 100 µM; in assay [3], more than 100 µM; in assay [4], more than 100 µM; in assay [5], 37.9 µM. Also, the TGI in assay [6] was 29.6 µM; in assay [10], more than 100 µM; in [7], more than 100 µM.

As for `CC1=C2C(O)C(C(C)C(=O)NCC(C)C)CCC2(C)C=CC1=O` (stereo unspecified), the TGI in [1], in [2], in [9], in assay [3], in [4] and in [5] was more than 100 µM in each case. Besides, the TGI in [10], in assay [7] and in assay [8] was more than 100 µM throughout.

For the molecule `C=C[C@@H]1OC(=O)O[C@H]1CO`, the concentration for total growth inhibition (TGI) in assay [1], in [2], in assay [9], in assay [3], in assay [4] and in assay [5] was more than 100 µM throughout. The TGI in [10] and in assay [7] was more than 100 µM in each case.

With `S=c1[nH]nc(COc2ccc3c(c2)CCCC3)n1/N=C/c1ccc(Cl)cc1`, the TGI in [1] came to 32.7 µM; in assay [2], 36.1 µM; in [3], 28.6 µM; in [4] it was 43 µM; in assay [5], 30.6 µM; in [6], 30.3 µM. Moreover, the figures for the TGI in assay [10], in [7] and in [8] were 32.8 µM, 46.9 µM and 32.8 µM, respectively.

Take `COc1c(CC=C(C)C)c(O)c(C(CC(C)C)c2c(O)c(C(C)=O)c(O)c3c2OC(C(C)(C)O)C3)c(O)c1C(C)=O` (stereo unspecified): the total growth inhibition concentration (TGI) is more than 12.5 µM in assay [1]; more than 12.5 µM in assay [9]; more than 12.5 µM in assay [3]; more than 12.5 µM in [4]; more than 12.5 µM in [5]; 8.36 µM in assay [6]. For the same molecule, the TGI in [10], in assay [7] and in assay [8] was more than 12.5 µM in each case.

With `COc1ccc(/C=C2\C=Cc3ccccc32)cc1OC`, the TGI in assay [1], in assay [9], in [3], in [4], in [5] and in [6] was more than 100 µM each time. The concentration for total growth inhibition (TGI) in [10], in assay [7] and in assay [8] was more than 100 µM throughout.

Consider `CSC1=N/C(=C\c2ccc(C)cc2)C(=O)N1CN1CCOCC1`, for which the TGI in assay [1], in assay [2], in [9], in assay [3], in assay [4] and in assay [5] was more than 100 µM throughout. In addition, the TGI is 32.9 µM in [10] and more than 100 µM in [7].

For the molecule `CCOC(=O)C1C(=O)CC(O)(OCC)C(C(=O)OCC)C1c1ccc(OC)cc1` (stereo unspecified), the TGI in assay [1], in [9], in assay [3], in [4], in assay [5] and in assay [6] was more than 100 µM each time. Also, the TGI in assay [10] and in assay [7] was more than 100 µM throughout.

As to `CCN1CC2=C(N=c3s/c(=C\c4ccc(Cl)cc4)c(=O)n3C2c2ccc(Cl)cc2)/C(=C/c2ccc(Cl)cc2)C1` (stereo unspecified), the concentration for total growth inhibition (TGI) is more than 100 µM in assay [1]; more than 100 µM in [2]; more than 100 µM in assay [9]; more than 100 µM in assay [3]; 80.6 µM in assay [4]; more than 100 µM in assay [5]. Moreover, the TGI in assay [10] and in assay [7] was more than 100 µM throughout.

Turning to `O=C(OCCN=C1c2ccccc2CCc2ccccc21)c1cc([N+](=O)[O-])cc([N+](=O)[O-])c1`, the total growth inhibition concentration (TGI) in assay [1] was more than 31.6 µM; in [2], 8.14 µM; in [9] it was more than 31.6 µM; in [3], more than 31.6 µM; in assay [4], more than 31.6 µM; in assay [5], more than 31.6 µM. Moreover, the figures for the TGI in [10], in assay [7] and in [8] were more than 100 µM, 7.09 µM and more than 31.6 µM, respectively.

Regarding `CC(=O)/C(C=Nc1c(C)n(C)n(-c2ccccc2)c1=O)=C(/C)O`, the TGI in assay [1], in assay [2], in assay [9], in assay [3], in assay [5] and in [10] was more than 100 µM throughout. In addition, the TGI in assay [7] and in [8] was more than 100 µM throughout.

As a reminder, the GI50 is the concentration giving 50% growth inhibition. With `CC1NC(=O)CNC(=O)CNC(=O)C(Cc2ccc(O)cc2)NC(=O)C(C(C)C)NC(=O)C(C)NC1=O` (stereo unspecified) (cyclo(GGAAVY); configuration not given here), the TGI in assay [1], in assay [2], in assay [9], in [3], in assay [4] and in [5] was more than 100 µM throughout. Further, the TGI is > 100 µM and 22.7 µM in assay [10]; more than 100 µM in assay [7]; more than 100 µM in [8]. Moreover, the GI50 in [10] was more than 100 µM.

On to `CN(C)CCCNc1c(O)c2c(c(O)c1Cl)C(=O)C=CC2=O`, for which the TGI in [1] is 3.39 µM; in assay [9], more than 10 µM; in [3], 5.1 µM; in [5], 3.45 µM; in [6], 4.28 µM; in [10] it was 2.82 µM. Further, the figures for the TGI in assay [7] and in assay [8] were 5.04 µM and 3.22 µM, respectively.

`CSc1ccc2c(cc1=O)[C@@H](NC(C)=O)CCc1cc(O)c(O)c(O)c1-2`: the TGI in [1] was more than 100 µM; in assay [2], more than 100 µM; in [9], 33.4 µM; in assay [3], more than 100 µM; in [4], 38.6 µM; in assay [5] it was 32.4 µM. Also, the values for the concentration for total growth inhibition (TGI) in assay [6], in assay [10] and in assay [7] were more than 100 µM, 35.5 µM and more than 100 µM, respectively.

On to `CC(=O)N=C(N=Nc1c(O)[nH]c2ccc(C)cc12)NC(C)=O`, for which the TGI in assay [1], in assay [2], in [9], in [3], in assay [4] and in assay [5] was more than 100 µM each time. For the same molecule, the TGI in assay [6], in [10] and in assay [7] was more than 100 µM each time.

`O=C(O)CC(C(=O)O)c1ccccc1[N+](=O)[O-]` (stereo unspecified): the TGI in assay [1], in assay [2], in assay [9], in assay [3], in assay [4] and in assay [5] was more than 100 µM in each case. For the same molecule, the TGI in assay [6] and in [10] was more than 100 µM each time.

Regarding `Cc1cc2nc3n[nH]c(N)c3nc2cc1C`, the TGI in [1], in [2], in assay [9], in [3], in assay [4] and in assay [5] was more than 100 µM in each case. Besides, the TGI in assay [10] and in assay [7] was more than 100 µM each time.

Turning to `NC(=O)NC(=O)c1cnccn1`, the TGI in assay [1], in assay [2], in assay [9], in [3], in [4] and in assay [10] was more than 100 µM in each case. Moreover, the TGI in assay [7] and in assay [8] was more than 100 µM throughout.

As for `CN1CCCN2CCN(C)CCN(CC1)CC2`, the TGI in assay [1], in [2], in assay [3], in assay [4], in assay [5] and in assay [6] was more than 100 µM in each case. Besides, the TGI in [10], in assay [7] and in assay [8] was more than 100 µM throughout.

For `CC(=O)ON(OC(C)=O)c1ccc(C)cc1`, the TGI in assay [1], in [2], in assay [3], in [4], in assay [5] and in assay [10] was more than 100 µM each time. Also, the TGI in assay [7] is more than 100 µM.

As for `Cc1ccc2c(c1)SSSSS2`, the TGI in assay [1] was 37.1 µM; in assay [3], 30.6 µM; in assay [4] it was 60.5 µM; in assay [5], 40.8 µM; in assay [6] it was 29 µM; in [10], 37.2 µM. The molecule also displayed a TGI in assay [7] of more than 100 µM.
